Assay results from patent US12448400B2, “KRAS G12D modulating compounds” (priority 2023, dated 2025).
Like-named read-outs stand apart in the source and are kept apart here.

Assays:
GDP-loaded KRAS G12D = GDP-loaded KRAS G12D (Homo sapiens, UniProt P01116, G12D); assay: KRAS G12D (GDP) biochemical assay, TR-FRET probe displacement; format: binding
Protocol: Example A. KRAS G12D (GDP) Biochemical Assay
Compounds were tested for binding to GDP-loaded KRAS G12D in a 384-well assay format using a TR-FRET probe displacement assay in buffer consisting of 50 mM Hepes (pH 7.4), 150 mM NaCl, 5 mM MgCl2 and 0.005% Tween-20. […] Compounds were serially diluted (1:3) in DMSO. The LabCyte ECHO Acoustic dispenser system was used to pre-spot the assay plates (384-well Non-Binding Surface plates, Corning, Catalog #3824) with 50 nL of compound. The compounds were pre-incubated with 5 μL of 2× final enzyme concentration for 30 minutes before adding 5 μL of 2× final concentration of Eu-streptavidin and TR-FRET probe (10 μL final reaction volume). The plates were incubated at room temperature for 2 hours before measuring TR-FRET ratio on the Envision plate reader. IC50 values were defined as the compound concentration that causes a 50% decrease in TR-FRET ratio and were calculated using a sigmoidal dose-response model to generate curve fits.

GP2D (KRAS G12D) cells = assay: 2D cell viability assay (CellTiter-Glo); format: cell-based; details: 96 h
Protocol: Example B. 2D Cell Viability Assay
Compounds were tested in a 384-well format for their ability to inhibit the viability of GP2D (KRAS G12D) cells in 2D assays. Compounds were serially diluted (1:3) in DMSO. The LabCyte ECHO Acoustic dispenser system was used to pre-spot assay plates with 200 nL of test molecule per well. 1000 cells/well (40 μL volume per well) in RPMI medium with 10% FBS, and Penicillin-Streptomycin-Glutamine were plated in pre-spotted 384-well plates (Greiner, Catalog #781076) on the BioTEK EL406 liquid dispenser with a 5 μL dispensing cassette (BioTek 7170011). The plates were incubated at 37° C., 5% CO2 for 4 days before addition of CellTiter-Glo (CTG) reagent and measurement of luminescence signal. EC50 values were defined as the compound concentration that causes a 50% decrease in luminescence signal and were calculated using a sigmoidal dose-response model to generate curve fits.

[1] = 0.5 nM enzyme, 30 min pre-incubation, 2 h incubation, TR-FRET ratio, read-out: G12D IC50
[2] = GP2D cells, 4 days, CellTiter-Glo luminescence, read-out: G12D 2D EC50

Chain of GDP-loaded KRAS G12D (P01116 1-188 isoform P01116-2 G12D): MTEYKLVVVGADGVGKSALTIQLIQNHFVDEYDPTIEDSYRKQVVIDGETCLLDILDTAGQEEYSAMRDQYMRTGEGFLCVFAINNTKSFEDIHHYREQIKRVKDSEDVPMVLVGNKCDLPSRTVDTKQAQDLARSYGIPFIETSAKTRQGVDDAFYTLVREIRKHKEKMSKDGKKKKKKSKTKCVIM

Q: `C#Cc1c(F)ccc2cc(O)cc(-c3c(F)c4c5c(nc(OC[C@@]67CCCN6C[C@H](F)C7)nc5c3F)N3C[C@H]5CC[C@H](N5)[C@H]3CCC4)c12` (atropisomer, axis not shown; (aR)) [Example 28-P, (R)-4-((1S,4R,15aR)-10,12-difluoro-8-(((2R,7aS)-2-fluorotetrahydro-1H-pyrrolizin-7a(5H)-yl)methoxy)-2,3,4,5,13,14,15,15a-octahydro-1H-1,4-epiminoazepino[1′,2′:1,8]azocino[2,3,4-de]quinazolin-11-yl)-5-ethynyl-6-fluoronaphthalen-2-ol] was tested. Which IC50 (GDP-loaded KRAS G12D; [1]) did it give?
A: 0.07 nM

Q: And the EC50 (GP2D (KRAS G12D) cells; [2])?
A: 0.13 nM

Q: With `C#Cc1c(F)ccc2cc(O)cc(-c3c(F)c4c5c(nc(OC[C@]6(C)CN(C)CC[C@@H]6C(F)F)nc5c3F)N3C[C@H]5CC[C@H](N5)[C@H]3CCC4)c12` (atropisomer, axis not shown; (aR)) [Example 78-P, (R)-4-((1S,4R,15aR)-8-(((3S,4S)-4-(difluoromethyl)-1,3-dimethylpiperidin-3-yl)methoxy)-10,12-difluoro-2,3,4,5,13,14,15,15a-octahydro-1H-1,4-epiminoazepino[1′,2′:1,8]azocino[2,3,4-de]quinazolin-11-yl)-5-ethynyl-6-fluoronaphthalen-2-ol] as the compound, how does the IC50 (GDP-loaded KRAS G12D; [1]) read?
A: 0.04 nM

Q: And the EC50 (GP2D (KRAS G12D) cells; [2])?
A: 0.14 nM

Q: For `C#Cc1c(F)ccc2cc(OCc3oc(=O)oc3C)cc(-c3nc4c5c(nc(OC[C@@]67CCCN6C[C@H](F)C7)nc5c3F)N3C[C@H]5CC[C@@H]([C@@H]3[C@@H](C)C4)N5Cc3oc(=O)oc3C)c12` [Example 2, 4-(((5-ethynyl-6-fluoro-4-((5S,5aS,6S,9R)-1-fluoro-12-(((2R,7aS)-2-fluorotetrahydro-1H-pyrrolizin-7a(5H)-yl)methoxy)-5-methyl-14-((5-methyl-2-oxo-1,3-dioxol-4-yl)methyl)-4,5,5a,6,7,8,9,10-octahydro-3,10a,11,13,14-pentaaza-6,9-methanonaphtho[1,8-ab]heptalen-2-yl)naphthalen-2-yl)oxy)methyl)-5-methyl-1,3-dioxol-2-one], which IC50 (GDP-loaded KRAS G12D; [1]) is on record?
A: 40 nM

Q: And the EC50 (GP2D (KRAS G12D) cells; [2])?
A: 0.24 nM

Q: Which results are given for `C#Cc1c(F)ccc2cccc(-c3nc4c5c(nc(OC[C@@]67CCCN6C[C@H](F)C7)nc5c3F)N3C[C@H]5CC[C@@H]([C@H]3CCC4)N5Cc3oc(=O)oc3-c3ccccc3)c12` [Example 4, 4-(((6aR,7S,10R)-2-(8-ethynyl-7-fluoronaphthalen-1-yl)-1-fluoro-13-(((2R,7aS)-2-fluorotetrahydro-1H-pyrrolizin-7a(5H)-yl)methoxy)-5,6,6a,7,8,9,10,11-octahydro-4H-3,11a,12,14,15-pentaaza-7,10-methanocyclohepta[4,5]cycloocta[1,2,3-de]naphthalen-15-yl)methyl)-5-phenyl-1,3-dioxol-2-one]?
A: IC50 (GDP-loaded KRAS G12D; [1]): 3.3 nM; EC50 (GP2D (KRAS G12D) cells; [2]): 2.3 nM

Q: Which IC50 (GDP-loaded KRAS G12D; [1]) does the source give for `C#Cc1c(F)ccc2cccc(-c3nc4c5c(nc(OC[C@@]67CCCN6C[C@H](F)C7)nc5c3F)N3C[C@H]5CC[C@@H]([C@H]3CCC4)N5Cc3c(C)oc(=O)n3C)c12` [Example 5, 4-(((6aR,7S,10R)-2-(8-ethynyl-7-fluoronaphthalen-1-yl)-1-fluoro-13-(((2R,7aS)-2-fluorotetrahydro-1H-pyrrolizin-7a(5H)-yl)methoxy)-5,6,6a,7,8,9,10,11-octahydro-4H-3,11a,12,14,15-pentaaza-7,10-methanocyclohepta[4,5]cycloocta[1,2,3-de]naphthalen-15-yl)methyl)-3,5-dimethyloxazol-2(3H)-one] here?
A: 4.7 nM

Q: What about the EC50 (GP2D (KRAS G12D) cells; [2]) of the same compound?
A: 78 nM

Q: What does the source list for `C#Cc1c(F)ccc2cccc(-c3nc4c5c(nc(OC[C@@]67CCCN6C[C@H](F)C7)nc5c3F)N3C[C@H]5CC[C@@H]([C@H]3CCC4)N5Cc3oc(=O)oc3C(C)(C)C)c12` [Example 6, 4-(tert-butyl)-5-(((6aR,7S,10R)-2-(8-ethynyl-7-fluoronaphthalen-1-yl)-1-fluoro-13-(((2R,7aS)-2-fluorotetrahydro-1H-pyrrolizin-7a(5H)-yl)methoxy)-5,6,6a,7,8,9,10,11-octahydro-4H-3,11a,12,14,15-pentaaza-7,10-methanocyclohepta[4,5]cycloocta[1,2,3-de]naphthalen-15-yl)methyl)-1,3-dioxol-2-one]?
A: IC50 (GDP-loaded KRAS G12D; [1]): 31 nM; EC50 (GP2D (KRAS G12D) cells; [2]): 26 nM

Q: Which IC50 (GDP-loaded KRAS G12D; [1]) does the source give for `C#Cc1c(F)ccc2cc(O)cc(-c3nc4c5c(nc(OC[C@@]67CCCN6C[C@H](F)C7)nc5c3F)N3C[C@H]5CC[C@@H]([C@@H]3[C@@H](C)C4)N5Cc3oc(=O)oc3C)c12` [Example 7, 4-(((5S,5aS,6S,9R)-2-(8-ethynyl-7-fluoro-3-hydroxynaphthalen-1-yl)-1-fluoro-12-(((2R,7aS)-2-fluorotetrahydro-1H-pyrrolizin-7a(5H)-yl)methoxy)-5-methyl-4,5,5a,6,7,8,9,10-octahydro-3,10a,11,13,14-pentaaza-6,9-methanonaphtho[1,8-ab]heptalen-14-yl)methyl)-5-methyl-1,3-dioxol-2-one] here?
A: 2.8 nM

Q: And the EC50 (GP2D (KRAS G12D) cells; [2])?
A: 0.18 nM

Q: Which results are given for `Oc1cc(-c2nc3c4c(nc(OC[C@@]56CCCN5C[C@H](F)C6)nc4c2F)N2C[C@H]4CC[C@H](N4)[C@H]2CCC3)c2c(OC(F)(F)F)c(F)ccc2c1` [Example 18-P, 6-fluoro-4-((6aR,7S,10R)-1-fluoro-13-(((2R,7aS)-2-fluorotetrahydro-1H-pyrrolizin-7a(5H)-yl)methoxy)-5,6,6a,7,8,9,10,11-octahydro-4H-3,11a,12,14,15-pentaaza-7,10-methanocyclohepta[4,5]cycloocta[1,2,3-de]naphthalen-2-yl)-5-(trifluoromethoxy)naphthalen-2-ol]?
A: IC50 (GDP-loaded KRAS G12D; [1]): 0.06 nM; EC50 (GP2D (KRAS G12D) cells; [2]): 0.24 nM

Q: How did the IC50 (GDP-loaded KRAS G12D; [1]) turn out when `C#Cc1c(F)ccc2cc(O)cc(-c3c(F)c4c5c(nc(OC[C@@]67CCCN6C[C@H](F)C7)nc5c3F)N3C[C@H]5CC[C@H](N5)[C@H]3CC4)c12` [Example 37-P, 4-((1S,4R,11R,14aR)-10,12-difluoro-8-(((2R,7aS)-2-fluorotetrahydro-1H-pyrrolizin-7a(5H)-yl)methoxy)-1,2,3,4,5,13,14,14a-octahydro-1,4-epiminoazepino[1′,2′:1,7]azepino[2,3,4-de]quinazolin-11-yl)-5-ethynyl-6-fluoronaphthalen-2-ol] was run?
A: 0.07 nM

Q: What about the EC50 (GP2D (KRAS G12D) cells; [2]) of the same compound?
A: 0.26 nM

Q: Which IC50 (GDP-loaded KRAS G12D; [1]) does the source give for `C#Cc1c(F)ccc2cc(O)cc(-c3nc4c5c(nc(OC[C@@]67CCCN6C[C@H](F)C7)nc5c3F)N3C[C@H]5CC[C@H](N5)[C@@H]3[C@H]3CCC[C@@H]43)c12` [Example 42-P, 5-ethynyl-6-fluoro-4-((3aS,3bS,4S,7R,14bR)-12-fluoro-10-(((2R,7aS)-2-fluorotetrahydro-1H-pyrrolizin-7a(5H)-yl)methoxy)-2,3,3a,3b,4,5,6,7,8,14b-decahydro-1H-8a,9,11,14,15-pentaaza-4,7-methanocyclopenta[d]naphtho[1,8-ab]heptalen-13-yl)naphthalen-2-ol] here?
A: 0.15 nM

Q: What about the EC50 (GP2D (KRAS G12D) cells; [2]) of the same compound?
A: 1.7 nM

Q: Which IC50 (GDP-loaded KRAS G12D) does the source give for `C#Cc1c(F)ccc2cc(OC(=O)N(C)C)cc(-c3nc4c5c(nc(OC[C@@]67CCCN6C[C@H](F)C7)nc5c3F)N3C[C@H]5CC[C@@H]([C@@H]3[C@@H](C)C4)N5Cc3oc(=O)oc3C)c12` [Example 51, 5-ethynyl-6-fluoro-4-((5S,5aS,6S,9R)-1-fluoro-12-(((2R,7aS)-2-fluorotetrahydro-1H-pyrrolizin-7a(5H)-yl)methoxy)-5-methyl-14-((5-methyl-2-oxo-1,3-dioxol-4-yl)methyl)-4,5,5a,6,7,8,9,10-octahydro-3,10a,11,13,14-pentaaza-6,9-methanonaphtho[1,8-ab]heptalen-2-yl)naphthalen-2-yl dimethylcarbamate] here?
A: > 100 nM

Q: What about the EC50 (GP2D (KRAS G12D) cells; GP2d, read-out: G12D 2D EC50 (nM)) of the same compound?
A: 34 nM

Q: With `C#Cc1c(F)ccc2cc(O)cc(-c3nc4c5c(nc(OC[C@]6(C)CN(C)CC[C@@H]6C(F)F)nc5c3F)N3C[C@H]5CC[C@H](N5)[C@H]3CCC4)c12` [Example 74-P, 4-((6aR,7S,10R)-13-(((3S,4S)-4-(difluoromethyl)-1,3-dimethylpiperidin-3-yl)methoxy)-1-fluoro-5,6,6a,7,8,9,10,11-octahydro-4H-3,11a,12,14,15-pentaaza-7,10-methanocyclohepta[4,5]cycloocta[1,2,3-de]naphthalen-2-yl)-5-ethynyl-6-fluoronaphthalen-2-ol] as the compound, how does the IC50 (GDP-loaded KRAS G12D; [1]) read?
A: 0.03 nM

Q: What about the EC50 (GP2D (KRAS G12D) cells; [2]) of the same compound?
A: 0.15 nM

Q: Which results are given for `[2H]C([2H])([2H])N1CC[C@H](C(F)F)[C@](C)(C([2H])([2H])Oc2nc3c4c(nc(-c5cc(O)cc6ccc(F)c(C#C)c56)c(F)c4n2)CCC[C@@H]2[C@@H]4CC[C@H](CN32)N4)C1` [Example 75-P, 4-((6aR,7S,10R)-13-(((3S,4S)-4-(difluoromethyl)-3-methyl-1-(methyl-d3)piperidin-3-yl)methoxy-d2)-1-fluoro-5,6,6a,7,8,9,10,11-octahydro-4H-3,11a,12,14,15-pentaaza-7,10-methanocyclohepta[4,5]cycloocta[1,2,3-de]naphthalen-2-yl)-5-ethynyl-6-fluoronaphthalen-2-ol]?
A: IC50 (GDP-loaded KRAS G12D; [1]): 0.03 nM; EC50 (GP2D (KRAS G12D) cells; [2]): 0.1 nM
